Measured values reported in paper PMC4730229, “Benzobisthiazoles Represent a Novel Scaffold for Kinase Inhibitors of CLK Family Members” (Biochemistry, 2015).

How the values were obtained:
Assay type in all cases: biochemical
[1] = target: T1, GST-CLK2cd (CLK2 catalytic domain) (Homo sapiens, UniProt P49760); experiment: High-throughput screen, Kinase-Glo in vitro kinase assay; details: compound at 10 μM; read-out: percentage of inhibition on CLK2 (primary screen)
T1 construct: cDNA encoding the CLK2 catalytic domain (CLK2cd, amino acids 140–496); made in house; host or cells: Escherichia coli BL21(DE3)-R3-lambda-PPase
T1 sequence (P49760 140-496): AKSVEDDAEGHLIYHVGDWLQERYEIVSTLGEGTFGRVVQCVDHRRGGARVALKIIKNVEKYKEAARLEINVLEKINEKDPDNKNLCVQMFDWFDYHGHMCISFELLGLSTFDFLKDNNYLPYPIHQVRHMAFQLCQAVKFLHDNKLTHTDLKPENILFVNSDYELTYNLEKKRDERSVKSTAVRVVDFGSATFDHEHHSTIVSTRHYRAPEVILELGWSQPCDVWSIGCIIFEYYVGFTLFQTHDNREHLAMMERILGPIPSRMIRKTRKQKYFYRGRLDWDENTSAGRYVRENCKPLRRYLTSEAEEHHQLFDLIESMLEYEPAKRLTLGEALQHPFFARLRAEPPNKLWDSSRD
Experimental: A small molecule inhibitor library consisting of 1600 compounds was obtained from LIFE Chemicals (Kiev, Ukraine). These compounds are part of the CUTE kinase collection that was predicted by in silico profiling against a panel of targets and includes potent kinase inhibitor compounds.[16] Compounds were dissolved as 10 mM stocks in DMSO and stored at room temperature, in the presence of 5% humidity and 5% oxygen in the dark in a Roylan Storage Pod system. Compounds were dispensed into white 384-well plates using the Labcyte Echo520 instrument at a final concentration of 10 μM. Next, 5 μL of 144.92 nM purified GST-CLK2cd in kinase assay buffer A was added to the compounds, incubated for 10 min at room temperature prior to addition of 5 μL of a 2 μM ATP/10 μM S6K peptide mixture, and incubated again for 60 min at room temperature. Subsequently, 10 μL of Kinase-Glo was added to the wells, and the plates were analyzed after 10 min on the Envision II multilabel plate reader (PerkinElmer). […] The percentage of inhibition is equal to 100 – [(total ATP before assay – remaining ATP in assay with compound)/(total ATP before assay – remaining ATP in assay with DMSO) × 100].

firefly luciferase = experiment: Luciferase inhibition assay (Kinase-Glo, no kinase); details: compound at 10 μM
Experimental: For analysis of luciferase inhibition, 10 μL of luciferase reagent (Kinase-Glo, Promega) was added to 10 μL of a mixture consisting of 1 μM ATP and 5 μM S6K and 10 μM compound (potential kinase inhibitor) in buffer A in the absence of kinase and incubated for 10 min at room temperature in a white well plate before the luminescence was read. The percentage of inhibition is equal to (luminescence in the assay without compound – luminescence in the assay with compound)/(luminescence in the assay without compound) × 100.

CLK3 = target: T2, CLK3 (Homo sapiens, UniProt P49761); experiment: Kinase inhibition assay, IC50
T2 construct: The catalytic domains of CLK1, CLK2, CLK3, CLK2K193A, and CLK2K193A/D290A were tagged with GST; GST (N); made in house
T2 sequence (P49761 156-472 limits assumed): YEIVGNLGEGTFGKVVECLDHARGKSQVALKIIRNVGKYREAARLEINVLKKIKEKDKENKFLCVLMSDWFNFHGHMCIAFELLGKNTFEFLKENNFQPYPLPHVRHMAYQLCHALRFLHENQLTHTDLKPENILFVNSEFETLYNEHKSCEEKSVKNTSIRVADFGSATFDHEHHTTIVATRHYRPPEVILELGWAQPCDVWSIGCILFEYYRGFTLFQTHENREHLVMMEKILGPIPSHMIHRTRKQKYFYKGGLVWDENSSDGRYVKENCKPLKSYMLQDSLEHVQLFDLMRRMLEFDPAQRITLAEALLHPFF

CLK2 = CLK2 (Homo sapiens, UniProt P49760); experiment: Kinase inhibition assay, IC50; set-up: cDNA encoding the CLK2 catalytic domain (CLK2cd, amino acids 140–496); made in house; host or cells: Escherichia coli BL21(DE3)-R3-lambda-PPase; details: relative to 3A5
Chain of CLK2 (P49760 140-496): as the sequence (P49760 140-496) above

| inhibition at 10 µM [1] [%] | % inhibition of luciferase (firefly luciferase) [%] | IC50 (CLK3) [µM] | decrease of inhibition against CLK2 compared to 3A5 (CLK2) | SMILES |
| --- | --- | --- | --- | --- |
| 58 | 5.6 ± 4.0 |  |  | O=C(O)c1ccc(C(=O)Nc2ccccc2-c2nc3ccccc3[nH]2)cc1 [9C6] |
|  |  | > 3 |  | O=C1N=C(NCc2cccs2)S/C1=C\c1ccc2ncccc2c1 [NR9, (5Z)-5-(quinolin-6-ylmethylidene)-2-[(thiophen-2-ylmethyl)amino]-1,3-thiazol-4(5H)-one] |
| 58 | 17.5 ± 2.2 |  |  | CC1(C)Cc2cccc(OCC(=O)Nc3cccc(-c4cc[nH]n4)c3)c2O1 [18B6] |
| 53 | 21.9 ± 0.2 |  |  | COc1ccccc1C(=O)Nc1nc2ncccc2cc1-c1ccccc1 [17F6] |
| 51 | 17.5 ± 4.5 |  |  | CC(=O)Nc1ccc(-c2nc3c(Cl)cccc3[nH]2)cc1 [2A4] |
| 51 | 0 ± 2.4 |  |  | COc1ccc(Cc2cnc(NC(=O)c3cc(C)oc3C)s2)cc1 [13D3] |
| 52 | 0 ± 6.2 |  |  | COCCNC(=O)c1cccc(Nc2nc(-c3ccccc3)c3cc(Cl)ccc3n2)c1 [8B5] |
| 50 | 47.8 ± 2.1 |  |  | Cc1nc2c(ccc3nc(NC(=O)c4cccs4)sc32)s1 [4G9] |
| 53 | 18.8 ± 1.6 |  |  | CC(=O)Nc1nc2cc3c(cc2s1)OCO3 [8A6] |
| 50 | 8.1 ± 1.8 |  |  | O=C(Nc1nc2c(s1)CCCC2)C1CC1 [1C11] |
| 63 | 13.4 ± 1.8 |  |  | CCN1/C(=C/C(C)=O)Sc2ccc(OC)cc21 [TG003, reference compound] |
| 58 | 26.4 ± 2.4 |  |  | Fc1ccc(-c2csc3ncnc(NCc4ccccc4)c23)cc1 [5E11] |
| 56 | 20.4 ± 1.6 |  |  | O=C(NCCO)c1ccc(Nc2nc(-c3ccccc3)c3cc(Cl)ccc3n2)cc1 [4B9] |
| 53 | 19.6 ± 3.6 |  |  | COc1cc(C(=O)Nc2nc3ccc(S(=O)(=O)N4CCCCC4)cc3s2)cc(OC)c1OC [7C4] |
| 65 | 26 ± 1.1 |  |  | O=C(Nc1cccc(-c2nc3ccccc3[nH]2)c1)c1ccc2ncsc2c1 [3B5] |
| 55 | 23.6 ± 1.5 |  | 2–3 fold | CSc1nc2ccc3nc(NC(=O)c4ccc(S(=O)(=O)N5CCOCC5)cc4)sc3c2s1 [5F4] |
| 56 | 21.1 ± 2.2 |  |  | O=C(Nc1cccc(-c2nc3ccccc3[nH]2)c1)c1ccc2nsnc2c1 [18H3] |
